The results in this text go back to patent US20060183696A1, “Use of immune cell specific conjugates for treatment of inflammatory diseases of gastrointestinal tract” (Pliva-Istrazivacki Institut d.o.o., priority 2004, published 2006).

For orientation: bioavailability means dose-corrected exposure relative to a reference, in per cent. The low end stands for little systemic uptake, the high end for much systemic uptake.

The nature of this data set: in vivo. The settings on record: male, rat, po.

A value given as a limit tells only on which side of the number the result lay.

Method: Male Sprague-Dawley rats weighing approximately 200 g were used. After weighing, each rat was given an earmark and placed into a cage. The day before the beginning of the study, animals were randomly distributed into 5 groups with 5 rats/group and placed into solid bottom cages, on wood dust-free bedding (VRF-1 Rodent's diet, Altromin Gmbh). During the experiment, the rats were maintained on a 12-h light-dark cycle. The rats were weighed and fasted for 12 hours prior to p.o. administration.
Compound 5 was administered p.o. in 0.125% carboxymethyl cellulose suspension. The dissolved substance was administered oral at a dose of 30 mg/kg body weight (b.w.), using 2.5 mL syringe (BD) and metal gavage. The administered volume was 10 mL/kg b.w.
Plasma and blood samples were obtained at the following time points after administration: 15, 30, 60, 120, 240, 360 and 480 minutes.
Blood samples were collected by puncturing the lateral tail vein. Prior to each blood sampling, animals were maintained in warming cabinets at 37° C. for 15 minutes. At each sampling time-point 50 μL of blood were collected and added to an Eppendorf test tube (1.5 mL) containing 50 μL demi water. Blood was collected according the time points stated in the protocol. Specimens were stored at −20° C. until analysis.
The concentrations of a compound 5 in the biological matrices were determined by a high performance liquid chromatography method using an acetonitrile and water (acidified by 0.1% formic acid) gradient as the chromatographic medium with tandem mass spectrometry detection (HPLC/MS-MS) (Guidance for Industry, Bioanalytical Method Validation, U.S. Department of Health and Human Services, Food and Drug Administration, May 2001).
Biological samples were prepared by deproteinization with acetonitrile, containing an internal standard. After centrifugation and evaporation of the supernatant fraction, samples were reconstituted in acetonitrile:water with addition of 0.1% formic acid.
HPLC separation was performed on a reverse phase C18 analytical column (Phenomenex C18(2)m 50×2 mm (3 μm) No 182700-5) with a guard column, maintained at ambient temperature, using a gradient of water:acetonitrile [0 min-1 min 10% acetonitrile, 2.5-3.5 minutes 80% acetonitrile, 3.5-5.6 min 10% acetonitrile with addition of 0.1% formic acid at flow rate 0.3 ml/min
MS-MS detection was performed in multi-resolution mode (MRM).
The concentration of the administered compound in biological matrices are calculated by the peak area ratios of compound 5 to an internal standard of roxithromycin using calibration curves and quality control samples.
The pharmacokinetic parameters were calculated using the PK solutions 2.0 software (Summit Research Services, Pharmacokinetics and Metabolism Software).
The pharmacokinetic parameters were calculated as disclosed herein to obtain the bioavailability wherein F=(AUC p.o.(0−∞)/AUC i.v. (0−∞))/(Di.v./Dp.o.).

The compound `CC[C@H]1OC(=O)[C@H](C)[C@@H](OC2C[C@@](C)(OC)[C@@H](O)[C@H](C)O2)[C@H](C)C(O[C@@H]2O[C@H](C)C[C@H](N(C)C)[C@H]2O)[C@](C)(O)C[C@@H](C)CN(CCCNCCC(=O)O[C@]2(C(=O)OC)[C@H](C)CC3C4C[C@H](F)C5=CC(=O)C=C[C@]5(C)[C@@]4(F)[C@@H](O)C[C@@]32C)[C@H](C)[C@@H](O)[C@]1(C)O` (stereo partly shown) [10′] gave a bioavailability of under 1%.
